Several values for one entry are separate records, joined by “and”; a condition that tells them apart may be missing. Identical values can stand only once. Activity calls are given as the source filed them.
How the values were obtained:
Large T antigen = Large T antigen (Simian virus 40, UniProt P03070); format: functional, Betapolyomavirus macacae;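 note: Confirmatory-stage PubChem screen for compounds that inhibit SV40 T antigen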
[1] = molecular target: Lysine-specific demethylase 4A (Homo sapiens, UniProt O75164); assay: JMJD2A histone demethylase inhibitors, dose response, selectivity assay for GASC-1 inhibitor project, biochemical, DELFIA europium, cherry-picked samples (AID 488840)
[2] = molecular target: T1, Lysine-specific demethylase 4C (Homo sapiens, UniProt Q9H3R0); assay: GASC-1 (JMJD2C) histone demethylase inhibitors, dose response, biochemical, DELFIA europium, cherry-picked samples (AID 488835); format: functional
T1 sequence (Q9H3R0 whole entry): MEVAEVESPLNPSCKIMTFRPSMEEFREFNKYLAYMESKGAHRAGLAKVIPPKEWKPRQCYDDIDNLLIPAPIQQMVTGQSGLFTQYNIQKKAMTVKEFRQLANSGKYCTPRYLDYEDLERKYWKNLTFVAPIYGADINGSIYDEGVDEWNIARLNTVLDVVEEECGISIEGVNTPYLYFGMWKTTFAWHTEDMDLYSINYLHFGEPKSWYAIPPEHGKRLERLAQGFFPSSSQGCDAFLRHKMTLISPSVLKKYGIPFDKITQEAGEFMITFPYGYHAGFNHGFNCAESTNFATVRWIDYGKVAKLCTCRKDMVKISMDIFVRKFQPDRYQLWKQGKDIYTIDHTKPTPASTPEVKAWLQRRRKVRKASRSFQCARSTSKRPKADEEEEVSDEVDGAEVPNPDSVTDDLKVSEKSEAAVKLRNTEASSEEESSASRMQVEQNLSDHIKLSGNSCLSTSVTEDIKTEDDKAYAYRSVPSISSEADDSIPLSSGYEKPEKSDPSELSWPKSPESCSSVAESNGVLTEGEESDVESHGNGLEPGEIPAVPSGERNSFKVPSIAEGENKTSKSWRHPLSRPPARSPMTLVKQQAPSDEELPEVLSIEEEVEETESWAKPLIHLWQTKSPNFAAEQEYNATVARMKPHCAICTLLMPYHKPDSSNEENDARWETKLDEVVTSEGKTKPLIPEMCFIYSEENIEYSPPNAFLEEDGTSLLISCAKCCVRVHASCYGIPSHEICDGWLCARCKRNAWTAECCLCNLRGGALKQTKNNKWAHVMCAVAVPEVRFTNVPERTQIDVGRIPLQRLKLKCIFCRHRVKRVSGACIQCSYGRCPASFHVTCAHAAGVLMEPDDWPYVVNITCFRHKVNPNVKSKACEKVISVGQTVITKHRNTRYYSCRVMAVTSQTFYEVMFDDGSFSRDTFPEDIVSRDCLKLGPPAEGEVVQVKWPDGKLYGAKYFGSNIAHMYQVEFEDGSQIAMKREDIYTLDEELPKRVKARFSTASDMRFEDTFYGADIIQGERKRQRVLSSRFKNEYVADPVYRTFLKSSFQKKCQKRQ

[3] = molecular target: T2, Tyrosine-protein phosphatase non-receptor type 22 (Homo sapiens, UniProt Q9Y2R2); assay: LYP1 Fluorescent Assay using OMFP substrate for In Vitro dose response studies. [Related pubchem assays (depositor defined):AID1779, AID1784, AID435024]
T2 sequence (Q9Y2R2 whole entry): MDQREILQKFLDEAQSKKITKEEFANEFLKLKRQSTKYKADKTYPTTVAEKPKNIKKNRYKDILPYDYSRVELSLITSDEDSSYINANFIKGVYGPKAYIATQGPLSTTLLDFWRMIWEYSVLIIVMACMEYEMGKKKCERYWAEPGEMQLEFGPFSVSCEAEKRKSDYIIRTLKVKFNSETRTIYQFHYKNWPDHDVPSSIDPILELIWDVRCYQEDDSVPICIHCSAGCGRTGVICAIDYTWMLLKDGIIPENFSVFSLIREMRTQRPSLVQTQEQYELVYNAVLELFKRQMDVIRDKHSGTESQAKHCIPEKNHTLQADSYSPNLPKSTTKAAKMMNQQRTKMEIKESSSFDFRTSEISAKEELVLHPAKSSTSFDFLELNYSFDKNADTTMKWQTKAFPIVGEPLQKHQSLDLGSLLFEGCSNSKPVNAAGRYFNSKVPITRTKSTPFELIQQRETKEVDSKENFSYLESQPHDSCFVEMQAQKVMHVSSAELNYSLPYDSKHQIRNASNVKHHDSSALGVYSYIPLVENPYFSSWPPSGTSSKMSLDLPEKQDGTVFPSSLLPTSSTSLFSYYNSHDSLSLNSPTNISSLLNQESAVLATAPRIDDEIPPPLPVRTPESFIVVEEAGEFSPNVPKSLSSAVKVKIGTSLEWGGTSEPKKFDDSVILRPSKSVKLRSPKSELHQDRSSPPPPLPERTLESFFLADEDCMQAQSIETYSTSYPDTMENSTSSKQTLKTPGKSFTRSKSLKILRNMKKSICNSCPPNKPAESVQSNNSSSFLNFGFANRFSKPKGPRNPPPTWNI

Aminopeptidase N = molecular target: T3, Aminopeptidase N (Plasmodium falciparum FcB1/Columbia, UniProt O96935); assay: P. falciparum M1AAP inhibitors, biochemical, fluorogenic H-Leu-NHMec substrate, 1536-well (AID 1445); parameters: species or system Plasmodium falciparum 3D7, 3D7
T3 sequence (O96935 whole entry): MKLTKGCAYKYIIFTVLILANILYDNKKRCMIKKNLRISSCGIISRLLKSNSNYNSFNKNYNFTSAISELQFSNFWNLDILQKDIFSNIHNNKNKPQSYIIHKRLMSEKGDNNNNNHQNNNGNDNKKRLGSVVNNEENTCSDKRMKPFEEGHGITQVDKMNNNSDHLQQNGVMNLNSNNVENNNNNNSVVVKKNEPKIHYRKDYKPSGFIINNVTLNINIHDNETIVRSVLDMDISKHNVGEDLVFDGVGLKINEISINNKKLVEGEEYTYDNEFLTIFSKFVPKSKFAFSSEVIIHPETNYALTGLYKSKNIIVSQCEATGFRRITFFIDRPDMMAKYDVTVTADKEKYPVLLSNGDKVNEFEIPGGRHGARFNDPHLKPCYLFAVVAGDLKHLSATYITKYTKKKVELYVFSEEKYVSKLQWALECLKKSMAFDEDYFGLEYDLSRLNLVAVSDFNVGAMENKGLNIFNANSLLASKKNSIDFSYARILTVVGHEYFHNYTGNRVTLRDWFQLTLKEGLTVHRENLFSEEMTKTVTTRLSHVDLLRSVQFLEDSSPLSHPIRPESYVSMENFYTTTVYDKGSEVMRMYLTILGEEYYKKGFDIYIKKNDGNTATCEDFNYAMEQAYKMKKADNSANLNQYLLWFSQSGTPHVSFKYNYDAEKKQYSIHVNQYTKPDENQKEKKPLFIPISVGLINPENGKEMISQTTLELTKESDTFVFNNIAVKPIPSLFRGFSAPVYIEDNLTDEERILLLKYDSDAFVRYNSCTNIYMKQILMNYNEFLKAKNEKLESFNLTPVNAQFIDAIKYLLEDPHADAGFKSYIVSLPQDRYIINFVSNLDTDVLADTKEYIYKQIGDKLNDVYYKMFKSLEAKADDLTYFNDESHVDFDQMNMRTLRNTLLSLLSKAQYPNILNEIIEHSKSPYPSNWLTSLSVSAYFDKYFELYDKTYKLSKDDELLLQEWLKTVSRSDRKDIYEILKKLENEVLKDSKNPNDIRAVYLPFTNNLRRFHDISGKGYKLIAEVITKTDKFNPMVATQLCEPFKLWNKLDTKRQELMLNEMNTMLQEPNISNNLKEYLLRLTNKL

[4] = molecular target: T4, Dual specificity protein phosphatase 3 (Homo sapiens, UniProt P51452); assay: VHR1 phosphatase inhibitors, primary screen, biochemical, absorbance, uHTS (AID 1654)
[5] = molecular target: T5, Tyrosine-protein phosphatase non-receptor type 7 (Homo sapiens, UniProt P35236); format: functional
T5 sequence (P35236 whole entry): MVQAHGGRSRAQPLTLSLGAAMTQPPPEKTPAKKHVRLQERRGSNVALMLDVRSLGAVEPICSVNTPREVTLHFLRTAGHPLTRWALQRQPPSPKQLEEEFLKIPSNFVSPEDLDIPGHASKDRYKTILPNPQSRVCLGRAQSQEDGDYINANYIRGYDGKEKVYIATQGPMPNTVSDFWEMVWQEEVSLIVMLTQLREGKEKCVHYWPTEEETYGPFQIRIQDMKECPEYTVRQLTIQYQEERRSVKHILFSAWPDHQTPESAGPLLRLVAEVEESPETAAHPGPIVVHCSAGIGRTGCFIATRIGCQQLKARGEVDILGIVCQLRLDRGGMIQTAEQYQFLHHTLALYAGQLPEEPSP

[6] = molecular target: T5, Tyrosine-protein phosphatase non-receptor type 7; assay: HTS HePTP Fluorescent Assay using OMFP substrate for In Vitro dose response studies. [Related pubchem assays (depositor defined):AID1059, AID1077, AID1784, AID2068, AID2085, AID435032, AID521]; format: functional
[7] = molecular target: T2, Tyrosine-protein phosphatase non-receptor type 22; assay: inhibitors of LYP phosphatase, biochemical, fluorescence intensity, uHTS (AID 1779)
[8] = molecular target: T4, Dual specificity protein phosphatase 3; assay: VHR1 phosphatase inhibitors, biochemical (AID 1878)
[9] = molecular target: T6, Dual specificity protein phosphatase 6 (Rattus norvegicus, UniProt Q64346); assay: MKP-3 phosphatase inhibitors, primary screen, biochemical, rat enzyme, in vitro (AID 425)
T6 sequence (Q64346 whole entry): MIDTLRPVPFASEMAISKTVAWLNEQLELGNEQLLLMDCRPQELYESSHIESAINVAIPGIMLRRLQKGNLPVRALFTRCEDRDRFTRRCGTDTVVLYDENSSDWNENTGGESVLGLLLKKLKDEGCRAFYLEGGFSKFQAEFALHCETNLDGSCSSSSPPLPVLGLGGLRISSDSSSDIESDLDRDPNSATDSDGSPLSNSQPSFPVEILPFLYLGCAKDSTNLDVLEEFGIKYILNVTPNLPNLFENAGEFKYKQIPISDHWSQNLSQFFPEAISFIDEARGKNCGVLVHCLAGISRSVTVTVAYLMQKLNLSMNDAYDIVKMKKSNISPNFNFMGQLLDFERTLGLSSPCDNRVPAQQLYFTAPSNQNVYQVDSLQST

[10] = molecular target: T2, Tyrosine-protein phosphatase non-receptor type 22; format: functional
[11] = molecular target: T2, Tyrosine-protein phosphatase non-receptor type 22; format: functional; remark: listed apart in the source
[12] = molecular target: T7, Carboxy-terminal domain RNA polymerase II polypeptide A small phosphatase 1 (Homo sapiens, UniProt Q9GZU7); assay: inhibitors of CTDSP1, concentration-response testing, biochemical assay, absorbance-based, actives from ultra-high-throughput screening (AID 540297); format: functional
T7 sequence (Q9GZU7 whole entry): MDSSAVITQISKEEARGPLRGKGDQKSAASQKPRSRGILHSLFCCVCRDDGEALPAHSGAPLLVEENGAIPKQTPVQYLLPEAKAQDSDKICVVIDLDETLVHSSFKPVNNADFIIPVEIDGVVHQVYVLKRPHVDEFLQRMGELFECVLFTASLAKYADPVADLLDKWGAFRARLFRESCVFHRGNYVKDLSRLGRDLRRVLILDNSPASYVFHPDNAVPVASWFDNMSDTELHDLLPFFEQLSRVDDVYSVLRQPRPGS

Albumin = Albumin (Bos taurus, UniProt P02769); assay: Counterscreen for inhibitors of T-cell receptor (TCR)-CD3 interaction: Fluorescence-based biochemical high throughput dose response assay to identify inhibitors of T-cell receptor (TCR)-CD3 interaction using a TAMRA-labeled BSA probe.; format: functional
[13] = molecular target: Glyceraldehyde-3-phosphate dehydrogenase (Homo sapiens, UniProt P04406)
[14] = molecular target: Alkaline phosphatase, placental type (Homo sapiens, UniProt P05187); assay: PLAP enzyme inhibitors, confirmation, biochemical, luminescence (AID 1512); format: functional
[15] = molecular target: T8, Alkaline phosphatase, tissue-nonspecific isozyme (Homo sapiens, UniProt P05186); assay: human TNAP enzyme inhibitors, SAR follow-up, biochemical, luminescent, dose response (AID 1056)
T8 sequence (P05186 whole entry): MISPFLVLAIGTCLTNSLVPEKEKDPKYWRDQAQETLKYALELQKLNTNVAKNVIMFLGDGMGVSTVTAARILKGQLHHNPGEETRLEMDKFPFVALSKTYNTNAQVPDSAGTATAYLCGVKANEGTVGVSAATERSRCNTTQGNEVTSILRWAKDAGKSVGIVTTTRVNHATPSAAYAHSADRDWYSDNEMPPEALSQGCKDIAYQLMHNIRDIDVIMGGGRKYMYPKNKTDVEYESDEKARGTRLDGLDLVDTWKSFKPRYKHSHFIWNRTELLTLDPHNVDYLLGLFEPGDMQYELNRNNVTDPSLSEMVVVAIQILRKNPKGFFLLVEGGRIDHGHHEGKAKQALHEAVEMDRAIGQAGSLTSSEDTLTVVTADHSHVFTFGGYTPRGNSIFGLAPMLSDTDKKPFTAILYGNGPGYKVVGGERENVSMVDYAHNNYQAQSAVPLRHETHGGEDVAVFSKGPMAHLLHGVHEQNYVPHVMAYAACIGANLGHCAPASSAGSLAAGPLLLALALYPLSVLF

Sequence of Alkaline phosphatase, placental type (P05187 whole entry): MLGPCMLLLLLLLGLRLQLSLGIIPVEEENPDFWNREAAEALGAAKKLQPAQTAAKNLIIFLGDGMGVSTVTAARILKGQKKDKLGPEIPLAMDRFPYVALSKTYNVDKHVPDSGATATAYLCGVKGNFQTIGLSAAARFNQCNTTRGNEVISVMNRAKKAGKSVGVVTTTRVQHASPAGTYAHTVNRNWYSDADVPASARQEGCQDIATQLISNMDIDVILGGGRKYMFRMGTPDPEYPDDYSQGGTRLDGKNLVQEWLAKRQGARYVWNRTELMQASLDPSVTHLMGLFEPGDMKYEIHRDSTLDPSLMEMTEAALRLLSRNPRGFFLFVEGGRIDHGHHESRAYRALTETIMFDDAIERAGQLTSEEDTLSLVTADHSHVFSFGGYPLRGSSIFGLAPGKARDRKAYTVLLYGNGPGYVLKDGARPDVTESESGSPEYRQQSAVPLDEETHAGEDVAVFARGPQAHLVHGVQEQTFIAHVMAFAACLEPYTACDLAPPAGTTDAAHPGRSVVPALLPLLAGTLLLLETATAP
T4 sequence (P51452 whole entry): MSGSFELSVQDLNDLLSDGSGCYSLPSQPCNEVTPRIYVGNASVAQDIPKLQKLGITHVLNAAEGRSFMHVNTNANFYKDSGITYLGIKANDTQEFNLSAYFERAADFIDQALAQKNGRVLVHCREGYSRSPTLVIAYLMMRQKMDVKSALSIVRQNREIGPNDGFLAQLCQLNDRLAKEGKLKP
Sequence of Glyceraldehyde-3-phosphate dehydrogenase (P04406 whole entry): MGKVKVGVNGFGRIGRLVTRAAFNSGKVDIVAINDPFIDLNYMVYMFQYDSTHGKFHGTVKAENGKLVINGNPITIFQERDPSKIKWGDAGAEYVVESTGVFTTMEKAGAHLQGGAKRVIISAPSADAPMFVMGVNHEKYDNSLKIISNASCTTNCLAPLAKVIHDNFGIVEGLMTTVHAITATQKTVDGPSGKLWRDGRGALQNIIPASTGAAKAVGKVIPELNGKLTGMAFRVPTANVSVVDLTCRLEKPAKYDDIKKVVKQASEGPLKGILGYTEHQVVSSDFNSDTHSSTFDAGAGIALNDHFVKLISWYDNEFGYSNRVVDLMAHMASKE
Sequence of Lysine-specific demethylase 4A (O75164 whole entry): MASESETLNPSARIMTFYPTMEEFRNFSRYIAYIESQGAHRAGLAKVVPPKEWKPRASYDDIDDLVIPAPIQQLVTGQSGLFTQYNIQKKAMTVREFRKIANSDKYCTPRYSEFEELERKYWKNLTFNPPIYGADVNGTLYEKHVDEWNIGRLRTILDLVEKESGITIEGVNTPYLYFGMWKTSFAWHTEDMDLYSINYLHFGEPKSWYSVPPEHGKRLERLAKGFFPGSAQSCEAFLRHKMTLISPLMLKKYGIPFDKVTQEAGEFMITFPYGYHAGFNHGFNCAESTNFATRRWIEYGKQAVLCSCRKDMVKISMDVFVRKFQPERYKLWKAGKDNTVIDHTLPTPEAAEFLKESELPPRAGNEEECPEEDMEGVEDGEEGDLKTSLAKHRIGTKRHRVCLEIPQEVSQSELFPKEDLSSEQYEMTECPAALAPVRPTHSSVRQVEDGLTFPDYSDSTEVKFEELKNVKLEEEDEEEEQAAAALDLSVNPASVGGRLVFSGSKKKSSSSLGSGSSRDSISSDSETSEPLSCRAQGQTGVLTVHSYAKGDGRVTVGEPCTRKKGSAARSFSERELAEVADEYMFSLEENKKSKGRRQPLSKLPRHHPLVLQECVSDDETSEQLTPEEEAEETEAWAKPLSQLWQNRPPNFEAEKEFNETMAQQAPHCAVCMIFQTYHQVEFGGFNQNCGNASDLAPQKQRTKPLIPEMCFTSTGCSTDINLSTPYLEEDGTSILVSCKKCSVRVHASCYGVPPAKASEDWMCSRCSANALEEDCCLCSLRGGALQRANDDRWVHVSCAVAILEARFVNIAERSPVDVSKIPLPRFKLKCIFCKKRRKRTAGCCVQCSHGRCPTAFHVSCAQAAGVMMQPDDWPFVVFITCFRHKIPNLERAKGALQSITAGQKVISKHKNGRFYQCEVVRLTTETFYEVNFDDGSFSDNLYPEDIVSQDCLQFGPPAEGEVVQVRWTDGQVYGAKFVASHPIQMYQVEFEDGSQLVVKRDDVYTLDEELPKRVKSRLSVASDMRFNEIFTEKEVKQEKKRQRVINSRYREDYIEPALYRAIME
Sequence of Albumin (P02769 whole entry): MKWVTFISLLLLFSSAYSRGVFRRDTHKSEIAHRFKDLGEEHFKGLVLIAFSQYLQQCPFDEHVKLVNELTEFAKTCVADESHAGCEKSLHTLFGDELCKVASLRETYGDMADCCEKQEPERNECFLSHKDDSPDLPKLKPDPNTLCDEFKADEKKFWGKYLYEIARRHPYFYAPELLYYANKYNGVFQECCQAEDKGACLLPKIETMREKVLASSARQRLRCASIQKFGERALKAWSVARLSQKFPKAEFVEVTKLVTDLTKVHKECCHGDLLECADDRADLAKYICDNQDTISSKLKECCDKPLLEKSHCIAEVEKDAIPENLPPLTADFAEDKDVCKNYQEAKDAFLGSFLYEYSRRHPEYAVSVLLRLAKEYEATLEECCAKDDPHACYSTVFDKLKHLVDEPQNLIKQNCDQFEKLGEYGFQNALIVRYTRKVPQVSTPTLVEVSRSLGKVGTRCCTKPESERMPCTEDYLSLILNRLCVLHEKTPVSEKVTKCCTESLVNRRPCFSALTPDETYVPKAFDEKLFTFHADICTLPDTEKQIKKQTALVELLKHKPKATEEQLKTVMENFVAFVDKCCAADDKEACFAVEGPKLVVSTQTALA
Sequence of Large T antigen (P03070 whole entry): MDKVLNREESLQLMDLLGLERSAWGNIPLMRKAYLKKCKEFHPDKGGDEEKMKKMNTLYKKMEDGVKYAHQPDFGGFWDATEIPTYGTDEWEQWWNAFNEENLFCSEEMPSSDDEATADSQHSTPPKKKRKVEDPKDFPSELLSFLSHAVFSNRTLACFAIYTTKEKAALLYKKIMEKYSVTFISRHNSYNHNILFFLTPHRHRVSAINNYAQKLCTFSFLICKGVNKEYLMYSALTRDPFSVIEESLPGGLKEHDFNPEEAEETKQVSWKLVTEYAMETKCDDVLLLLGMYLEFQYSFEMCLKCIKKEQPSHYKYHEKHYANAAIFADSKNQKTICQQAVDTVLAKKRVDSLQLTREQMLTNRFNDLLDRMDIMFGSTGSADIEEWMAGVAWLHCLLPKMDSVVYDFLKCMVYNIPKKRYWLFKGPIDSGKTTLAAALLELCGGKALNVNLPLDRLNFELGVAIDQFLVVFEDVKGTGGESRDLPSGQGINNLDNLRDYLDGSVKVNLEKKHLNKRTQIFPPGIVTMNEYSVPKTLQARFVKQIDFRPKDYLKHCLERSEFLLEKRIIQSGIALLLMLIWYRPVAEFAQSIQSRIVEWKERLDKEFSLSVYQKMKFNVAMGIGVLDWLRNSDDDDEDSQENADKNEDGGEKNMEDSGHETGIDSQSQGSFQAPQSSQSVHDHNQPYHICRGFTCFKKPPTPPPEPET

Structure (SMILES): COc1ccc(NN=Nc2nc3c(=O)n(C)c(=O)n(C)c3[nH]2)cc1
- IC50 (Large T antigen): 36.8 µM (active)
- AC50 [1]: > 60 µM (inactive)
- AC50 [2]: 8.08 µM (active)

Structure (SMILES): COc1ccc(/N=C2\S/C(=C\c3ccc(OCC(=O)O)cc3)C(=O)N2CCc2c[nH]c3ccccc23)cc1
- IC50 [3]: > 99 µM (inactive)
- IC50 (Aminopeptidase N): 75.7 µM (active)
- IC50 [4]: 3.49 µM (active)
- IC50 [5]: 2.52 µM (active)
- IC50 [6]: > 99 µM (inactive)
- IC50 [7]: > 99 µM (inactive)
- IC50 [8]: 2.43 µM (active)
- IC50 [9]: > 158 µM (not active)
- IC50 [10]: < 1.24 µM (active)
- IC50 [11]: < 1.24 µM (active)

Structure (SMILES): Cc1ccc(C(=O)NNC(=O)c2ccc3ccccc3c2O)cc1
- AC50 [1]: 6.59 µM (active)
- AC50 [2]: 8.8 µM (active)
- IC50 [12]: 7.74 µM (active)
- IC50 (Albumin): > 94 µM (inactive)

Structure (SMILES): O=C1C2CC=CCC2C(=O)N1c1nnc(Cc2ccccc2)[nH]1 (stereo not drawn)
- IC50 [13]: > 100 µM (not active)
- IC50 [14]: 2.04 µM (active) and 3.25 µM (active)
- IC50 [15]: 169 nM (active) and 126 nM (active) and 172 nM (active)

Structure (SMILES): Oc1ccccc1-c1n[nH]c(-c2ccccc2O)n1
- IC50 [13]: > 100 µM (not active)
- IC50 [14]: > 100 µM (inactive)
- IC50 [15]: > 100 µM (inactive)
